Source: patent US20240400555A1 (Initial Therapeutics, Inc., priority 2023, published 2024)

Tested on: HCT-116 Firefly-luciferase reporter cells
Assay: Cellular c-MYC Reporter Assay
Assay type: cell-based
Conditions: Homo sapiens; untitled table following Table 8a; HCT-116 Firefly-luciferase reporter cells, 24 h; read-out: pIC50 (converted)
Method: HCT-116 Firefly-luciferase reporter cells (BPS Bioscience) were seeded in 96-well tissue-culture treated sterile plates (Greiner Bio-One) at 5e4 cells/mL in 100 μL complete growth media (McCoy's 5A+10% FBS, +1% Pen-Strep, +1% G418). Cells were incubated at 37° C. with 5% CO2 for 4-6 h then treated with 3× compound solution in 50 μL complete growth media for a final volume of 150 μL per well with 0.2% DMSO. After 24 h incubation at 37° C. with 5% CO2, plates were allowed to equilibrate to RT for 20 min then developed by addition of 100 μL ONE-Glo Luciferase detection reagent (Promega), incubated at RT for 10 min. Luminescence was recorded using a SpectraMax i3x plate reader (Molecular Devices) and analyzed using Prism GraphPad 9 software.

SMILES | IC50
Cc1cccc2ccnc(N(C(=O)c3ccc(Nc4ncccn4)cc3F)[C@@H]3CCCNC3)c12 [Example 210, (R)-2-fluoro-N-(8-methylisoquinolin-1-yl)-N-(piperidin-3-yl)-4-(pyrimidin-2-ylamino)benzamide] | 275 nM
O=C(O)c1ccc2c(N(C(=O)c3ccc(-n4nnc5cccnc54)cc3F)[C@@H]3CCCNC3)nccc2c1 [Example 118, (R)-1-(4-(3H-[1,2,3]triazolo[4,5-b]pyridin-3-yl)-2-fluoro-N-(piperidin-3-yl)benzamido)isoquinoline-6-carboxylic acid] | > 20000 nM
Cn1cc(-c2ccc(C(=O)N(c3cc(-c4cc[nH]n4)ccn3)[C@@H]3CCCNC3)cc2)nn1 [Example 110, 4-(1-methyltriazol-4-yl)-N-[(3R)-3-piperidyl]-N-[4-(1H-pyrazol-3-yl)-2-pyridyl] benzamide] | > 10000 nM
O=C(c1ccc(-n2nnc3cccnc32)cc1F)N(c1nccc2ccc(-c3cccnc3)cc12)[C@@H]1CCCNC1 [Example 151, (R)-4-(3H-[1,2,3]triazolo[4,5-b]pyridin-3-yl)-2-fluoro-N-(piperidin-3-yl)-N-(7-(pyridin-3-yl)isoquinolin-1-yl)benzamide] | 1020 nM
Cc1cccc2ccnc(N(C(=O)c3ncc(-n4nnc5cccnc54)cc3F)[C@@H]3CCCNC3)c12 [Example 201, (R)-5-(3H-[1,2,3]triazolo[4,5-b]pyridin-3-yl)-3-fluoro-N-(8-methylisoquinolin-1-yl)-N-(piperidin-3-yl)picolinamide] | 148 nM
O=C(c1ccc(-n2nnc3cccnc32)cc1F)N(c1nccc2ccc(-c3ccn[nH]3)cc12)[C@@H]1CCCNC1 [Example 152, (R)—N-(7-(1H-pyrazol-5-yl)isoquinolin-1-yl)-4-(3H-[1,2,3]triazolo[4,5-b]pyridin-3-yl)-2-fluoro-N-(piperidin-3-yl)benzamide] | 468 nM
O=C(c1ccc(-n2nnc3cccnc32)cc1F)N(c1nccc2sc(C3=CCNCC3)cc12)[C@@H]1CCCNC1 [Example 159, (R)-4-(3H-[1,2,3]triazolo[4,5-b]pyridin-3-yl)-2-fluoro-N-(piperidin-3-yl)-N-(2-(1,2,3,6-tetrahydropyridin-4-yl)thieno[3,2-c]pyridin-4-yl)benzamide] | 2630 nM
Cc1cccc2ccnc(N(C(=O)c3ccc(-c4n[nH]c5c4CCCC5)cc3F)[C@@H]3CCCNC3)c12 [Example 123, (R)-2-fluoro-N-(8-methylisoquinolin-1-yl)-N-(piperidin-3-yl)-4-(4,5,6,7-tetrahydro-1H-indazol-3-yl) benzamide] | 5010 nM
O=C(c1ccc(-n2nnc3cccnc32)cc1F)N(c1ncccc1C1=CCNC1)[C@@H]1CCCNC1 [Example 113, (R)-4-(3H-[1,2,3]triazolo[4,5-b]pyridin-3-yl)-N-(3-(2,5-dihydro-1H-pyrrol-3-yl)pyridin-2-yl)-2-fluoro-N-(piperidin-3-yl)benzamide] | 4270 nM
COC(=O)c1ccc2nnn(-c3ccc(C(=O)N(c4nccc5cccc(C)c45)[C@@H]4CCCNC4)c(F)c3)c2n1 [Example 140, methyl (R)-3-(3-fluoro-4-((8-methylisoquinolin-1-yl)(piperidin-3-yl)carbamoyl)phenyl)-3H-[1,2,3]triazolo[4,5-b]pyridine-5-carboxylate] | 240 nM
Cc1cccc2ccnc(N(C(=O)c3ccc(N)cc3F)[C@@H]3CCCNC3)c12 [Example 124, (R)-4-amino-2-fluoro-N-(8-methylisoquinolin-1-yl)-N-(piperidin-3-yl) benzamide] | 3890 nM
O=C(c1ccc(-n2nnc3cccnc32)cc1F)N(c1nccc2cccc(C(F)(F)F)c12)[C@@H]1CCCNC1 [Example 221, (R)-4-(3H-[1,2,3]triazolo[4,5-b]pyridin-3-yl)-2-fluoro-N-(piperidin-3-yl)-N-(8-(trifluoromethyl)isoquinolin-1-yl)benzamide] | 2000 nM
N#Cc1ccc2ccnc(N(C(=O)c3ccc(-n4nnc5cccnc54)cc3F)[C@@H]3CCCNC3)c2c1 [Example 156] | 7080 nM
Cc1cccc2ccnc(N(C(=O)c3ccc(-c4nnn[nH]4)cc3)[C@H]3CCCNC3)c12 [Example 128, (S)—N-(8-methylisoquinolin-1-yl)-N-(piperidin-3-yl)-4-(1H-tetrazol-5-yl)benzamide] | > 10000 nM
Cc1cccc2ccnc(N(C(=O)N3CCC(Nc4ncccn4)CC3)[C@@H]3CCCNC3)c12 [Example 208, (R)—N-(8-methylisoquinolin-1-yl)-N-(piperidin-3-yl)-4-(pyrimidin-2-ylamino)piperidine-1-carboxamide] | 3550 nM
O=C(c1ccc(-n2nnc3cccnc32)cc1F)N(c1nccc2ccc(-c3cncnc3)cc12)[C@@H]1CCCNC1 [Example 150, (R)-4-(3H-[1,2,3]triazolo[4,5-b]pyridin-3-yl)-2-fluoro-N-(piperidin-3-yl)-N-(7-(pyrimidin-5-yl)isoquinolin-1-yl)benzamide] | 2290 nM
O=C(c1ccc(-n2nnc3cccnc32)cc1F)N(c1nccc2cccc(/C=C/CCO)c12)[C@@H]1CCCNC1 [Example 166, (R,E)-4-(3H-[1,2,3]triazolo[4,5-b]pyridin-3-yl)-2-fluoro-N-(8-(4-hydroxybut-1-en-1-yl)isoquinolin-1-yl)-N-(piperidin-3-yl)benzamide] | 141 nM
O=C(c1ccc(-n2nnc3cccnc32)cc1F)N(c1nccc2cc(-c3cn[nH]c3)ccc12)[C@@H]1CCCNC1 [Example 106, (R)—N-(6-(1H-pyrazol-4-yl)isoquinolin-1-yl)-4-(3H-[1,2,3]triazolo[4,5-b]pyridin-3-yl)-2-fluoro-N-(piperidin-3-yl)benzamide] | 537 nM
Cc1ccnc(N(C(=O)c2ccc(-n3nnc4cccnc43)cc2F)[C@@H]2CCCNC2)c1/C=C/CCO [Example 137, (R,E)-4-(3H-[1,2,3]triazolo[4,5-b]pyridin-3-yl)-2-fluoro-N-(3-(4-hydroxybut-1-en-1-yl)-4-methylpyridin-2-yl)-N-(piperidin-3-yl)benzamide] | 2950 nM
O=C(c1ccc(-n2nnc3cccnc32)cc1F)N(c1nccc2cccc(/C=C/c3cccnc3)c12)[C@@H]1CCCNC1 [Example 163, (R,E)-4-(3H-[1,2,3]triazolo[4,5-b]pyridin-3-yl)-2-fluoro-N-(piperidin-3-yl)-N-(8-(2-(pyridin-3-yl)vinyl)isoquinolin-1-yl)benzamide] | 537 nM
CNC(=O)c1cccnc1N(C(=O)c1ccc(-n2nnc3cccnc32)cc1F)[C@@H]1CCCNC1 [Example 213, (R)-2-(4-(3H-[1,2,3]triazolo[4,5-b]pyridin-3-yl)-2-fluoro-N-(piperidin-3-yl)benzamido)-N-methylnicotinamide] | 646 nM

The remaining lines, values ahead:

IC50 | SMILES
5250 nM | Cc1cccc2ccnc(N(C(=O)N3CCCC(CC4CCC4)C3)[C@@H]3CCCNC3)c12 (stereo partly drawn) [Example 260, 3-(cyclobutylmethyl)-N-(8-methylisoquinolin-1-yl)-N—((R)-piperidin-3-yl)piperidine-1-carboxamide]
3980 nM | Cc1cccc2ccnc(N(C(=O)N3CCN(c4nsc5ccccc45)CC3)[C@@H]3CCCNC3)c12 [Example 264, (R)-4-(benzo[d]isothiazol-3-yl)-N-(8-methylisoquinolin-1-yl)-N-(piperidin-3-yl)piperazine-1-carboxamide]
5890 nM | Cc1cccc2ccnc(N(C(=O)N3CCC(n4c(=O)ccc5ccccc54)CC3)[C@@H]3CCCNC3)c12 [Example 268, (R)—N-(8-methylisoquinolin-1-yl)-4-(2-oxoquinolin-1(2H)-yl)-N-(piperidin-3-yl)piperidine-1-carboxamide]
> 20000 nM | Cc1cccc2ccnc(N(C(=O)c3ccc(Nc4cccc(=O)[nH]4)cc3F)[C@@H]3CCCNC3)c12 [Example 292, (R)-2-fluoro-N-(8-methylisoquinolin-1-yl)-4-((6-oxo-1,6-dihydropyridin-2-yl)amino)-N-(piperidin-3-yl)benzamide]
100 nM | Cc1cn(C)c2c(N(C(=O)c3ccc(-n4nnc5cccnc54)cc3F)[C@@H]3CCCNC3)nccc12 [Example 255, (R)-4-(3H-[1,2,3]triazolo[4,5-b]pyridin-3-yl)-N-(1,3-dimethyl-1H-pyrrolo[2,3-c]pyridin-7-yl)-2-fluoro-N-(piperidin-3-yl)benzamide]
437 nM | O=C(c1ccc(Nc2ncccn2)cc1F)N(c1nccc2cccc(Cl)c12)[C@@H]1CCCNC1 [Example 272, (R)—N-(8-chloroisoquinolin-1-yl)-2-fluoro-N-(piperidin-3-yl)-4-(pyrimidin-2-ylamino)benzamide]
38 nM | Cc1cccc2ccnc(N(C(=O)c3ccc(-n4nnc5cccnc54)cc3F)[C@@H]3CCCNC3)c12 [Example 242, (R)-4-(3H-[1,2,3]triazolo[4,5-b]pyridin-3-yl)-2-fluoro-N-(8-methylisoquinolin-1-yl)-N-(piperidin-3-yl)benzamide]
5370 nM | Cc1cccc2ccnc(N(C(=O)N3CCCC(C)(c4ccccc4)C3)[C@@H]3CCCNC3)c12 (stereo partly drawn) [Example 267, 3-methyl-N-(8-methylisoquinolin-1-yl)-3-phenyl-N—((R)-piperidin-3-yl)piperidine-1-carboxamide]
2950 nM | Cc1cccc2ccnc(N(C(=O)N3CCC(n4ncc5ccccc54)CC3)[C@@H]3CCCNC3)c12 [Example 266, (R)-4-(1H-indazol-1-yl)-N-(8-methylisoquinolin-1-yl)-N-(piperidin-3-yl)piperidine-1-carboxamide]
891 nM | Cc1cccc2ccnc(N(C(=O)c3ccc(Nc4ncns4)cc3F)[C@@H]3CCCNC3)c12 [Example 280, 2-fluoro-N-(8-methyl-1-isoquinolyl)-N-[(3R)-3-piperidyl]-4-(1,2,4-thiadiazol-5-ylamino)benzamide]
